Test results reported in ChEMBL document CHEMBL1201862, “PubChem BioAssay data set” (2004).
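These data come from cells grown in 96-well plates and exposed to compound for 48 hours at five concentrations. GI50 = concentration required for 50% inhibition of growth.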 Calls of active or inactive are those of the source. Cut-off read from the data, not from the text of the source: active = GI50 up to about 1.1 µM and inactive = higher.

What was measured:
Assay in all cases: NCI-60 cell line screen, 48 h
786-0 = test system: 786-0
A498 = test system: A498
A549 = test system: A549
HOP-62 = test system: HOP-62
HOP-92 = test system: HOP-92
LOX IMVI = test system: LOX IMVI
MDA-MB-231 = test system: MDA-MB-231
MDA-MB-435 = test system: MDA-MB-435
Malme-3M = test system: Malme-3M
OVCAR-3 = test system: OVCAR-3
RXF 393 = test system: RXF 393
SF-268 = test system: SF-268
SK-MEL-28 = test system: SK-MEL-28
SN12C = test system: SN12C
SNB-75 = test system: SNB-75
T47D = test system: T47D
UACC-257 = test system: UACC-257
Hs-578T = test system: Hs-578T
RPMI-8226 = test system: RPMI-8226
HL-60 = test system: HL-60

| Compound | GI50 (786-0) | GI50 (A498) | GI50 (A549) | GI50 (HOP-62) | GI50 (HOP-92) | GI50 (LOX IMVI) | GI50 (MDA-MB-231) | GI50 (MDA-MB-435) | GI50 (Malme-3M) | GI50 (OVCAR-3) | GI50 (RXF 393) | GI50 (SF-268) | GI50 (SK-MEL-28) | GI50 (SN12C) | GI50 (SNB-75) | GI50 (T47D) | GI50 (UACC-257) | GI50 (Hs-578T) | GI50 (RPMI-8226) | GI50 (HL-60) |
| --- | --- | --- | --- | --- | --- | --- | --- | --- | --- | --- | --- | --- | --- | --- | --- | --- | --- | --- | --- | --- |
| CCOP(=O)(OCC)/C(C#N)=C/c1cccn1CC(C)C | > 100 µM (inactive) | > 100 µM (inactive) | > 100 µM (inactive) | > 100 µM (inactive) | > 100 µM (inactive) | > 100 µM (inactive) | 57.3 µM (inactive) | > 100 µM (inactive) | > 100 µM (inactive) | > 100 µM (inactive) | > 100 µM (inactive) | > 100 µM (inactive) | > 100 µM (inactive) | > 100 µM (inactive) | > 100 µM (inactive) | 36.6 µM (inactive) | > 100 µM (inactive) |  |  |  |
| OCCCCCCCCCCCOc1ccc(C2OCC3(CO2)COC(c2ccc(OCCCCCCCCCCCO)cc2)OC3)cc1 (stereo unspecified) | > 50 µM (inactive) | > 50 µM (inactive) | > 50 µM (inactive) | > 50 µM (inactive) |  | > 50 µM (inactive) | > 50 µM (inactive) | > 50 µM (inactive) | > 50 µM (inactive) | > 50 µM (inactive) |  | > 50 µM (inactive) | > 50 µM (inactive) | > 50 µM (inactive) | > 50 µM (inactive) | > 50 µM (inactive) | > 50 µM (inactive) | > 50 µM (inactive) | > 50 µM (inactive) |  |
| CCOc1cc(C2SCC(=O)N2c2ccc(Oc3ccc(Cl)cc3)c(Cl)c2)ccc1O (stereo unspecified) | 25 µM (inactive) |  | 17.9 µM (inactive) | 17.6 µM (inactive) | 18.6 µM (inactive) | 19.4 µM (inactive) | 19.3 µM (inactive) | 19 µM (inactive) | 17.1 µM (inactive) | 14 µM (inactive) |  | 15.4 µM (inactive) | 20 µM (inactive) | 33 µM (inactive) | 21.2 µM (inactive) | 14.2 µM (inactive) | 17.5 µM (inactive) | 17.3 µM (inactive) | 14.7 µM (inactive) | 12.6 µM (inactive) |
| COc1ccc(-n2sc3ncccc3c2=O)cc1 | 15.9 µM (inactive) |  | 69.5 µM (inactive) | 23.1 µM (inactive) | 27.7 µM (inactive) | 30.8 µM (inactive) | 21.7 µM (inactive) | 28.8 µM (inactive) | 15.8 µM (inactive) | 23 µM (inactive) |  | 24.7 µM (inactive) | 23.6 µM (inactive) | 38.2 µM (inactive) | 23.6 µM (inactive) | 17.7 µM (inactive) | 18.7 µM (inactive) | 26.3 µM (inactive) | 28.3 µM (inactive) | 3.58 µM (inactive) |
| CO[C@@H](C(=O)OC1C=CC2(CC1)C(=O)N(C)c1ccccc12)c1ccccc1 (stereo partly specified) | > 100 µM (inactive) | > 100 µM (inactive) | > 100 µM (inactive) | > 100 µM (inactive) | > 100 µM (inactive) | > 100 µM (inactive) | > 100 µM (inactive) | 94.8 µM (inactive) |  | > 100 µM (inactive) |  |  | > 100 µM (inactive) | > 100 µM (inactive) | > 100 µM (inactive) | 44.2 µM (inactive) | 65.3 µM (inactive) |  | 50.6 µM (inactive) | 20.9 µM (inactive) |
| Cc1ccc(S(=O)(=O)NC(=O)NCCc2ccc(O)c(O)c2)cc1 | > 100 µM (inactive) | > 100 µM (inactive) | > 100 µM (inactive) | > 100 µM (inactive) | > 100 µM (inactive) | 53.6 µM (inactive) | > 100 µM (inactive) | 51.3 µM (inactive) | > 100 µM (inactive) | > 100 µM (inactive) | > 100 µM (inactive) | > 100 µM (inactive) | > 100 µM (inactive) |  | > 100 µM (inactive) |  |  | > 100 µM (inactive) | 38 µM (inactive) | 56.5 µM (inactive) |
| CC[C@H](C)[C@H]1NC(=O)[C@@H](NC(=O)[C@@H](CC(C)C)N(C)C(=O)C2CCCN2C(=O)[C@H](C)O)[C@@H](C)OC(=O)[C@H](Cc2ccc(OC)cc2)N(C)C(=O)[C@@H]2CCCN2C(=O)[C@H](CCCCNC(=O)OCc2ccccc2)NC(=O)[C@H](C)C(=O)[C@H](C(C)C)OC(=O)C[C@@H]1O (stereo partly specified) | 5.56 µM (inactive) | > 25 µM (inactive) | 3.9 µM (inactive) | 6.65 µM (inactive) | 3.49 µM (inactive) | 7.4 µM (inactive) |  | 5.86 µM (inactive) | 4.89 µM (inactive) | 4.01 µM (inactive) | > 25 µM (inactive) | 3.91 µM (inactive) | 12.2 µM (inactive) | 5.64 µM (inactive) |  | 7.67 µM (inactive) | 2.49 µM (inactive) | 1.41 µM (inactive) | 4.17 µM (inactive) | > 25 µM (inactive) |
| CC(C)(C)O/C=C1/C(=O)OC2C[C@@H](O[Si](C)(C)C(C)(C)C)CC12 (stereo partly specified) | > 100 µM (inactive) | > 100 µM (inactive) | 58.9 µM (inactive) | > 100 µM (inactive) | 43.7 µM (inactive) | 36.6 µM (inactive) | > 100 µM (inactive) | 77.6 µM (inactive) | 98.9 µM (inactive) | 48.4 µM (inactive) | 0.759 µM (active) | 80.9 µM (inactive) | > 100 µM (inactive) | 34.7 µM (inactive) | 16.8 µM (inactive) | 23.3 µM (inactive) | 41.5 µM (inactive) |  |  |  |
| O=C(/C=C/c1cccs1)c1ccsc1 | 28.8 µM (inactive) | 38.7 µM (inactive) | 38 µM (inactive) | 73.5 µM (inactive) |  | 17.2 µM (inactive) | > 10 µM (inactive) | 21.8 µM (inactive) | 22.2 µM (inactive) |  |  | 45.1 µM (inactive) | 32.7 µM (inactive) | 19.8 µM (inactive) | 27.8 µM (inactive) | 26.3 µM (inactive) | 23 µM (inactive) |  | 15.9 µM (inactive) | 15.5 µM (inactive) |
| Cc1cc2c(=O)c3ccccc3oc2c(C#N)c1C | > 100 µM (inactive) | > 100 µM (inactive) | > 100 µM (inactive) | > 100 µM (inactive) | > 100 µM (inactive) |  |  |  | > 100 µM (inactive) |  | > 100 µM (inactive) | > 100 µM (inactive) | > 100 µM (inactive) |  | > 100 µM (inactive) | > 100 µM (inactive) | > 100 µM (inactive) | > 100 µM (inactive) | > 100 µM (inactive) | > 100 µM (inactive) |
| O=[N+]([O-])c1cccc(-c2ccc([C@H]3CC(c4ccc(Cl)cc4)=NN3)o2)c1 | 14.6 µM (inactive) | 31.6 µM (inactive) | > 100 µM (inactive) | 20.3 µM (inactive) | 17.3 µM (inactive) |  |  | 19.2 µM (inactive) | 15.8 µM (inactive) | 18.9 µM (inactive) | 16.8 µM (inactive) | 27 µM (inactive) |  | 16.7 µM (inactive) | 14.7 µM (inactive) | 11.4 µM (inactive) | 31.7 µM (inactive) | 58.9 µM (inactive) | 14.3 µM (inactive) | 0.893 µM (active) |
